Where two headings read alike, the source gives them in different places.
Columns and labels:
primary rat neurons = test system: primary rat neurons
Description: E18 rat neurons were isolated from Sprague-Dawley rats at 18 days after gestation. The isolated neurons were plated into a 6-well plate coated with poly-D-lysine. On day 5 after plating the neurons, different compounds of indicated concentrations were added (in triplicates) and incubated with the neurons for 48 h. Then the neurons were harvested and the number of live neurons was counted with a hemacytometer after staining with trypan blue. Data were presented as mean±SD.
CREB is a pleiotrophic factor involved in many different cellular processes including neuronal survival. The possibility of neuronal cell death might be a concern for CREB inhibitors in the future clinical applications if they could cross the blood brain barrier. Therefore, the toxicity of naphthol AS-E phosphate (i) or its active form, naphthol AS-E (ii), to primary rat neurons was investigated. Isolated E18 rat neurons were treated with increasing concentrations of naphthol AS-E phosphate (i) or naphthol AS-E (ii) for 48 h. […] At the end of the treatment, the neurons were collected and the number of live neurons were counted using trypan blue exclusion assay (FIG. 3).

A549 cells [1] = experiment: A549 live cell count, trypan blue; assay type: cell-based, human; conditions: 48 h, live cells counted
Description: (§1) (A) Inhibitory effect of CREB-mediated gene transcription by compounds i and ii in HEK 293 cells. Cells were transiently transfected with a plasmid encoding firefly luciferase under the control of three iterative copies of CRE (pCRE-Luc). Compound i or ii was added to the transfected cells in triplicate 30 min prior to the addition of forskolin (Fsk, 10 μM). The luciferase activity was measured using Dual Luciferase Reagent (Promega) and normalized to the co-transfected renilla luciferase (pRL-SV40, Promega). (B) Exponentially growing A549 cells in a 6-well plate (1.5×10^5 cells/well) were treated increasing concentrations of compound i or ii in triplicate for 48 h. […] Data were presented as mean±SD.
(§2) To investigate whether apoptosis was activated upon treatment, A549 cells were treated with either naphthol AS-E phosphate (i, 10 μM) or naphthol AS-E (ii, 10 μM) for 48 h. The cells were then analyzed by flow cytometry after staining with annexin-V and propidium iodide (PI). In this two-dye binding assay, annexin-V will bind phosphatidylserine exposed on the dying apoptotic cell surface while PI will only stain dead cells whose plasma-membrane integrity is compromised. This assay can discriminate intact cells (annexin^−/PI^−), apoptotic cells (annexin^+/PI^−) and necrotic or late apoptotic cells (annexin^+/PI^+).

[2] = Hydrolysis of naphthol AS-E phosphate in tissue culture media (DMEM), HPLC
Description: (A) Representative HPLC chromatograms of aliquots of the incubation mixture containing naphthol AS-E phosphate (i, 500 μM), 1-naphthalenemethanol (1 mM) and DMEM with 10% FBS at different time points. […] 1-Naphthalenemethanol was included as an internal standard. The minor peaks on the chromatograms are components from DMEM, which contains various amino acids, vitamins and carbohydrates. (B) Time-dependent increases of naphthol AS-E during the hydrolysis of naphthol AS-E phosphate. The data were extracted from the experiment presented in (A). The concentration of naphthol AS-E was determined based on the calibration curve shown in (C).
Napthol AS-E phosphate was incubated with tissue culture media (Dulbecco's Modified Eagle Medium, DMEM) containing 10% fetal bovine serum (FBS) at 37° C. along with an internal standard, 1-naphthalenemethanol. The hydrolysis of napthol AS-E phosphate was then monitored by reverse phase HPLC at various time points.

A549 cells [3] = experiment: A549 apoptosis, annexin-V/PI flow cytometry and PARP cleavage; assay type: cell-based, human; conditions: for percentage of cells undergoing apoptosis: 10 μM, 48 h, vehicle 6.3%; for cleavage of poly (ADP-ribose) polymerase (PARP): A549 cells treated with compound
Description: as §2

[4] = test system: CREB-mediated gene transcription; experiment: CRE firefly luciferase reporter assay in HEK 293 cells; assay type: cell-based; conditions: forskolin 10 μM, normalized to renilla luciferase
Description: as §1
In this assay, HEK 293 cells were transiently transfected with a luciferase reporter plasmid which expresses firefly luciferase under the control of three copies of CREB-response element (CRE). Additionally, an internal control plasmid constitutively expressing renilla luciferase was co-transfected to normalize transfection efficiency across the wells. The inhibition flirt-fly luciferase transcription seen in HEK 293 cells by compound i was not due to cell death because the firefly luciferase activity was normalized to renilla luciferase activity and the number of live cells after compound treatment was the same for all the different concentrations tested.

[5] = E18 rat neurons, 48 h, naphthols up to 10 μM, CPT positive control

Row | Compound | neuronal cell death (primary rat neurons; [5]) | A549 cell proliferation (A549 cells [1]) | neuronal cell death (primary rat neurons) | hydrolysis of phosphate i to naphthol ii after 25-h incubation ([2]; DMEM with 10% FBS, 37° C.) | period of constant rate of increase of naphthol AS-E ([2]; DMEM with 10% FBS, initial zero-order kinetics) [h] | hydrolysis in tissue culture media without FBS ([2]; DMEM without FBS, 24 h) | percentage of cells undergoing apoptosis (A549 cells [3]) [%] | cleavage of poly (ADP-ribose) polymerase (PARP) (A549 cells [3]) | inhibition of CREB-mediated gene transcription [4]
1 | CC[C@@]1(O)C(=O)OCc2c1cc1n(c2=O)Cc2cc3ccccc3nc2-1 [CPT, camptothecin] | killed most of the neurons | – | – | – | – | – | – | – | –
2 | O=C(Nc1ccc(Cl)cc1)c1cc2ccccc2cc1OP(=O)(O)O [naphthol AS-E phosphate] | – | inhibited A549 cell proliferation | no significant neuronal cell death | complete hydrolysis | > 8.5 | did not generate any hydrolysis product | 22.7 | detected | strongly inhibited
3 | O=C(Nc1ccc(Cl)cc1)c1cc2ccccc2cc1O [naphthol AS-E] | no significant neuronal cell death | inhibited A549 cell proliferation | – | – | – | – | 19.8 | detected | –
